Measurements published in patent US20220251218A1, “PHARMACEUTICAL COMBINATION AND METHOD FOR OVERCOMING IMMUNE SUPPRESSION OR STIMULATING IMMUNE RESPONSE AGAINST CANCER” (GNT BIOTECH & MEDICALS CORPORATION, priority 2021, published 2022).
“And” between values parts separate entries of the source, which are not always exact repeats. Identical values can stand only once. Like-named read-outs stand apart in the source and are kept apart here.

Assays:
[1] = system: CT26 tumor; settings: for ORR (%): 3 days after end of treatment; for Relapse (recurrence): tumor growth at least 5 fold in mice with CR or PR; for CR / PD / PR: number of mice
Method: Anti-Colorectal Cancer Activity in Animal Models. Animal study was approved and overseen by The Taipei Medical University Institutional Animal Care and Use Committee (TMU IACUC, NO: LAC-2020-0103, LAC-2019-0644). Six- to eight-week-old male Balb/c mice (National Laboratory Animal Center, Taiwan) were used for all animal experiments. CT26 cell line was purchased from ATCC. CT26 tumor cell lines were grown in RPMI-1640 supplemented with 10% (vol/vol) FBS at 37° C., 5% CO2. Tumors were established by s.c. injection of 1×10^6 CT26 cells with Matrigel (354248, Corning®) into the left flank of mice, and growth determined by measuring two perpendicular diameters. Tumors were allowed to grow for 8-12 days (tumor size about 110-250 mm^3) before randomization and treatment. Animals were euthanized when tumors reached more than 3000 mm^3 in volume. An anti-IgG antibody (BE0089, Lot #716719J3, Bio X Cell), anti-PD-1 antibody (BE0146, Lot #717918D1, Lot #735019J3, Lot #780120J3, Lot #73501901, Bio X Cell), anti-PD-L1 antibody (BE0101, Lot #720619F1, Bio X Cell) and anti-CTLA-4 antibody (BE0164, Lot #702418A2B, Bio X Cell) were administered i.p. at 2.5 mg/kg twice a week for three weeks. All antibodies were diluted to appropriate concentrations in 100 μL of sterile PBS (pH 7.4, Invitrogen Life Technologies). Axitinib (HY-10065, 30 mg/kg, po daily, MedChemExpress USA), Lenvatinib (HY-10981, 10 mg/kg, po daily, MedChemExpress USA), Olaparib (HY-10162, 50 mg/kg, po daily, MedChemExpress USA), Ibrutinib (HY-10997, 6 mg/kg, po daily, MedChemExpress USA), Cabozantinib (HY-13016, 30 mg/kg, po daily, MedChemExpress USA), Regorafenib (HY-1031, 30 mg/kg, po daily, MedChemExpress USA), RMC-4550 (HY-116009, 30 mg/kg, po daily, MedChemExpress USA), Sitravatinib (HY-16961, 20 mg/kg, po daily, MedChemExpress USA), Entinostat (HY-12163, 20 mg/kg, po q2d, MedChemExpress USA), Vorinostat (HY-10221, 150 mg/kg, po daily, MedChemExpress USA), Chidamide-k30 or Chidamide-HCl salt (50 mg/kg, po daily, produced from GNTbm, Taipei, Taiwan), Celecoxib (50 mg/kg, po daily, capsule/Celebrex®, Pfizer Pharmaceuticals LLC) were given for 16 days. Axitinib, Lenvatinib, Olaparib, Ibrutinib, Cabozantinib, Regorafenib, Entinostat, Vorinostat, RMC-4550, Sitravatinib and Celecoxib were dissolved in DMSO and diluted in PBS before administration. Chidamide-k30 and Chidamide-HCl salt were dissolved in water. Animals were euthanized when tumors reached more than 3000 mm^3 in volume. The anti-cancer activity was measured from the start of the treatment until the tumor volume reached 3,000 mm^3. Tumor volume was calculated as length×width^2×0.5. In this study, we defined Complete Response (CR, <0.5 time tumor growth in the tumor bearing mice at three days after the end of treatment); Partial Response (PR, tumor size ≥0.5 time tumor growth, but <1 times tumor growth in the tumor bearing mice at three days after the end of treatment); Stable Disease (SD, tumor size ≥1 time tumor growth, but <5 times tumor growth in the tumor bearing mice at three days after the end of treatment); Progressive Disease (PD, tumor size ≥5 times tumor growth in tumor bearing mice at three days after the end of treatment) for the evaluation of treatment efficacy. The recurrence was defined as when having tumor growth at least 5 fold in mice with CR or PR response after first tumor assessment.
Survival Rate in Animal Models. After tumor assessment the tumor volume of the mice was measured once every three or four days (twice/week). The tumor-bearing mice were regarded as dead when the tumor volume reached 3,000 mm^3. All treatment groups were recorded and analyzed.

[2] = system: CT26 cells; experiment: Tumor rechallenge with CT26 cells in mice with PR/CR response (immunity); type: in vivo, Balb/c mice; settings: for Immunity (rechallenge): mice resistant to CT26 re-challenge
Method: Tumor Rechallenges in Animal Models. All mice with PR/CR response after treatment were rechallenged with CT26 cells on the contralateral side (please see FIG. 6(F)). The rechallenge with CT26 was performed on day 34±2, which was 7 days […] after first tumor assessment (day 27±2), with injection of 5×10^6 CT26 cells per mouse. After rechallenge with CT26 cells, tumors were allowed to grow for another 7 days (day 41±2) to determine the baseline as 1 fold. After further 10 days (day 51±2), the tumor growth was evaluated for the rechallenge. If two of the following criteria are met, the response will be considered as rechallenge-induced recurrence/relapse: first, the tumor size over 2 folds when compared to that of baseline on day 41±2; second, the tumor volume on day 51±2 was over 300 mm^3. Relapse happens when immunity is not sufficiently activated. If the tumor growth is inhibited, it means the immunity is activated.
We were interested in researching more powerful regimens to regulate the TME for boosting the immune response rate. First, we were to evaluate the Lenvatinib and Lenvatinib combined with anti-PD-1 Ab in CT26-bearing mice model. […] CT26 tumor-bearing mice were euthanized when tumor volume reached 3000 mm^3 after tumor implantation. […] Next, we were interested to evaluate immunity stimulated by different treatments in a rechallenge experiment as outlined in FIG. 6(F). The mice with CR or PR went into a wash-out stage of 7 days (until day 34±2) without any further treatment. Then rechallenge was performed with the same kind of cancer cells (CT26; 5×10^6) inoculated on the opposite flank for about another 7 days (day 41±2) and then the tumor volume would be determined as baseline (1 fold). The rechallenge tumor was allowed to grow for 10 days, and then assessed to evaluate the tumor growth (day 51±2). The immunity was defined as negative, when it met two conditions: the tumor volume was over 300 mm^3, or the tumor size was over 2 fold when compared to baseline. […] If the immune memory was not induced or not fully activated, resulting in the growth of tumors inoculated during the rechallenge (tumor recurrence), then the immunity would be defined as negative. […] The rechallenge experiment was used to re-confirm whether the regimens have stimulated the immune system's ability to activate immune memory directly or indirectly.

[3] = FIG. 9, initial tumor volume 251 mm^3

SMILES | Survival Rate (%) ([1]; FIG. 9) | ORR (%) [1, 3] | Relapse (recurrence) ([1]; FIG. 9) | CR ([1]; FIG. 9) | PD ([1]; FIG. 9) | PR ([1]; FIG. 9) | Immunity (rechallenge) ([2]; FIG. 9) | tumor recurrence after the rechallenge ([2]; FIG. 6(G), mice that achieved CR/PR) | Immunity (rechallenge) ([2]; FIG. 6, overall immune memory) | Survival Rate (%) ([1]; FIG. 6) | ORR (%) ([1]; FIG. 6, initial tumor volume 190 mm^3) | Relapse (recurrence) ([1]; FIG. 6) | body weight ([1]; mouse, in vivo) | CR ([1]; FIG. 6) | PD ([1]; FIG. 6) | PR ([1]; FIG. 6)
CNC(=O)c1ccccc1Sc1ccc2c(/C=C/c3ccccn3)n[nH]c2c1 [Axitinib] | 38% | 37.5% and 38% | 0% | 3 | 4 | 0 |  |  |  |  |  |  |  |  |  | 
COc1cc2nccc(Oc3ccc(NC(=O)C4(C(=O)Nc5ccc(F)cc5)CC4)cc3)c2cc1OC [Cabozantinib] | 14% | 43% | 67% | 3 | 2 | 0 | 100% |  |  |  |  |  |  |  |  | 
COc1cc2nccc(Oc3ccc(NC(=O)NC4CC4)c(Cl)c3)c2cc1C(N)=O [Lenvatinib] | 0% | 12.5% and 13% | 100% | 0 | 2 | 1 |  | 33% | 67% | 10% | 30% | 67% | mildly reduced | 1 | 2 | 2
CNC(=O)c1cc(Oc2ccc(NC(=O)Nc3ccc(Cl)c(C(F)(F)F)c3)c(F)c2)ccn1 [Regorafenib] | 13% | 25% | 50% | 2 | 2 | 0 | 50% |  |  |  |  |  |  |  |  | 
